Data published in ChEMBL document CHEMBL5050844 (2019).

Assays:
[1] = biological target: E3 ubiquitin-protein ligase CBL-B (Homo sapiens, UniProt Q13191); assay: Inhibition of N-terminal Avi-tagged human CBL-B (36 to 427 residues) incubated with 60 nM Src kinase for 1.5 hrs followed by incubation with fluorescently labeled UbcH5B-Ub for 1 hr and measured by TR-FRET assay; format: single protein
[2] = Induction of anti-CD3/CD28 antibodies-stimulated human T cell activation at 1 uM assessed fold increase in IL-2 secretion measured by ELISA assay; format: functional, T cell line
[3] = Induction of anti-CD3/CD28 antibodies-stimulated human T cell activation at 0.3 uM assessed fold increase in IL-2 secretion measured by ELISA assay; format: functional, T cell line
[4] = Induction of anti-CD3 antibodies-stimulated human T cell activation at 1 uM assessed fold increase in IL-2 secretion measured by ELISA assay; format: functional, T cell line; further: reference of the scale not given here
[5] = Induction of anti-CD3/CD28 antibodies-stimulated human T cell activation at 1 uM assessed fold increase in CD25 expression measured by ELISA assay; format: functional, T cell line
[6] = Induction of anti-CD3/CD28 antibodies-stimulated human T cell activation at 0.3 uM assessed fold increase in CD25 expression measured by ELISA assay; format: functional, T cell line
[7] = Induction of anti-CD3 antibodies-stimulated human T cell activation at 1 uM assessed fold increase in CD25 expression measured by ELISA assay; format: functional, T cell line; further: reference of the scale not given here

Sequence of E3 ubiquitin-protein ligase CBL-B (Q13191 whole entry, the tested form may be a part): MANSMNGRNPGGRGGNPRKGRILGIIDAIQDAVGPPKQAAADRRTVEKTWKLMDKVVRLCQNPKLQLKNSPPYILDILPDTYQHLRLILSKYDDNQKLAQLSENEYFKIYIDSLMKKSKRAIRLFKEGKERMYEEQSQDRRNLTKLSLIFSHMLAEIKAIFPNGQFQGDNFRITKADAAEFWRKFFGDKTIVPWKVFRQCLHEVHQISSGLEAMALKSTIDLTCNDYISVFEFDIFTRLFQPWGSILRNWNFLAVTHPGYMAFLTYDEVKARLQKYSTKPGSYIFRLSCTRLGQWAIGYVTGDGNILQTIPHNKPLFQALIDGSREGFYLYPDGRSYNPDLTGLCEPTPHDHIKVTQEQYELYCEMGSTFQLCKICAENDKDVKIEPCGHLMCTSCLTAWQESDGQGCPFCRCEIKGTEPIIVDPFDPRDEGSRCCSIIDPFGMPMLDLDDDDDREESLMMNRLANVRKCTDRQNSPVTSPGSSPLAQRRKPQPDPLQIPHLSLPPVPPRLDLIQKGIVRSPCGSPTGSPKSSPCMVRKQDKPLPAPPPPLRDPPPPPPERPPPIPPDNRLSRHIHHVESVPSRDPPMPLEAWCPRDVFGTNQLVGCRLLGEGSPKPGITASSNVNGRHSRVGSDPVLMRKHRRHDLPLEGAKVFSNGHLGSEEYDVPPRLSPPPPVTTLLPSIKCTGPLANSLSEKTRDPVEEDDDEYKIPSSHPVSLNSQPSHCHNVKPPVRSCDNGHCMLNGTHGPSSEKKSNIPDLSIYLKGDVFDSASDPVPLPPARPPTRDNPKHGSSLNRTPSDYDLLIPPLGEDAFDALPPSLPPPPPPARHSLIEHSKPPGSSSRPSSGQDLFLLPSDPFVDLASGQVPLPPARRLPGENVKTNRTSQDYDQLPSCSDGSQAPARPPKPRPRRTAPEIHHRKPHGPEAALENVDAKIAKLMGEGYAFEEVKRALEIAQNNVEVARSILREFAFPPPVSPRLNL

SMILES | IC50 [1] [nM] | fold change (FC) [2] | fold change (FC) [3] | fold change (FC) [4] | fold change (FC) [5] | fold change (FC) [6] | fold change (FC) [7]
CN1C2CCC1CN(c1cc3c(c(C(F)(F)F)c1)CN(c1cccc(C4(Cc5nncn5C)COC4)c1)C3=O)C2 | < 100 | 5 | 2.51 | 0.151 | 1.01 | 1.01 | >=1.001
C[C@@H](c1cc2c(c(C(F)(F)F)c1)CN(c1cccc(C3(Cc4nncn4C)COC3)c1)C2=O)N1CC(F)C1 | < 100 | >=7.5 | 5 | 0.151 | 1.51 | 1.31 | >=1.001
COc1cc(C(=O)Nc2cccc(C3(Cc4nncn4C)COC3)c2)nc(C2CC2)n1 | < 100 | >=7.5 | 5 | 0.151 | 1.31 | 1.01 | >=1.001
Cn1cnnc1C[C@]1(c2cccc(N3Cc4c(cc(CN5CCC6(CC6)C5)cc4C(F)(F)F)C3=O)c2)CCOC1 | < 100 | >=7.5 | >=7.5 | >=0.201 | 1.01 | 1.01 | >=1.001
Cc1cc(C(=O)Nc2cccc(C3([C@@H](F)c4nncn4C)COC3)c2)nc(C2CC2)n1 | < 100 | >=7.5 | 2.51 | >=0.201 | 1.31 | 1.01 | >=1.001
Cn1cnnc1CC1(c2cccc(N3Cc4c(cc(CN5CCOC6(CCC6)C5)cc4C(F)(F)F)C3=O)c2)COC1 | < 100 | >=7.5 | >=7.5 | >=0.201 | 1.01 | 1.01 | >=1.001
CC(O)c1cc2c(c(C(F)(F)F)c1)CN(c1cccc(C3(Cc4nncn4C)COC3)c1)C2=O (centres undefined) | < 100 | 2.51 | 1.01 | 0.151 | 1.01 | 1.01 | >=1.001
Cc1cc2c(c(C3CC3)n1)CN(c1cccc(C3(C(F)(F)c4nncn4C)COC3)c1)C2=O | < 100 | 1.01 | 1.01 | 0.051 | 1.01 | 1.01 | 0.601
C[C@H](Cc1nncn1C)c1cc(C2CC2)nc(N2Cc3c(cccc3C(F)(F)F)C2=O)c1 | < 100 | 2.51 | 1.01 | 0.101 | 1.01 | 1.01 | 0.801
C[C@@H](c1cc2c(c(C(F)(F)F)c1)CN(c1cccc(C3(Cc4nncn4C)COC3)c1)C2=O)N1CC(C)(F)C1 | < 100 | >=7.5 | 2.51 | >=0.201 | 1.51 | 1.31 | >=1.001
CN1C[C@H]2CC[C@@H](C1)N2c1cc(C(=O)Nc2cccc(C3(Cc4nncn4C)COC3)c2)nc(C2CC2)n1 | < 100 | >=7.5 | 5 | >=0.201 | 1.51 | 1.31 | >=1.001
CN1CC2CC1CN2c1cc2c(c(C(F)(F)F)c1)CN(c1cccc([C@@](C)(F)C(F)(F)c3nncn3C)c1)C2=O (single isomer, unassigned; 563) | < 100 | 2.51 | 1.01 | 0.051 | 1.31 | 1.01 | 0.801
